Laboratory results reported in patent US20240374737A1, “ERK5 DEGRADERS AND USES THEREOF” (DANA-FARBER CANCER INSTITUTE, INC., priority 2021, published 2024).

Key:
ERK5 [1] = biological target: T1, ERK5 (Homo sapiens, UniProt Q13164); test: ERK5 degradation immunoblot in Molt4 cells; assay type: cell-based; conditions: for ERK5 degradation (immunoblot): 0.1 μM or 1 μM; for ERK5 degradation (immunoblot) / concentration at which ERK5 degradation is seen (as low as / up to): 5 hours
T1 construct: endogenous in cells; host or cells: Molt4 cells
T1 sequence (Q13164 whole entry): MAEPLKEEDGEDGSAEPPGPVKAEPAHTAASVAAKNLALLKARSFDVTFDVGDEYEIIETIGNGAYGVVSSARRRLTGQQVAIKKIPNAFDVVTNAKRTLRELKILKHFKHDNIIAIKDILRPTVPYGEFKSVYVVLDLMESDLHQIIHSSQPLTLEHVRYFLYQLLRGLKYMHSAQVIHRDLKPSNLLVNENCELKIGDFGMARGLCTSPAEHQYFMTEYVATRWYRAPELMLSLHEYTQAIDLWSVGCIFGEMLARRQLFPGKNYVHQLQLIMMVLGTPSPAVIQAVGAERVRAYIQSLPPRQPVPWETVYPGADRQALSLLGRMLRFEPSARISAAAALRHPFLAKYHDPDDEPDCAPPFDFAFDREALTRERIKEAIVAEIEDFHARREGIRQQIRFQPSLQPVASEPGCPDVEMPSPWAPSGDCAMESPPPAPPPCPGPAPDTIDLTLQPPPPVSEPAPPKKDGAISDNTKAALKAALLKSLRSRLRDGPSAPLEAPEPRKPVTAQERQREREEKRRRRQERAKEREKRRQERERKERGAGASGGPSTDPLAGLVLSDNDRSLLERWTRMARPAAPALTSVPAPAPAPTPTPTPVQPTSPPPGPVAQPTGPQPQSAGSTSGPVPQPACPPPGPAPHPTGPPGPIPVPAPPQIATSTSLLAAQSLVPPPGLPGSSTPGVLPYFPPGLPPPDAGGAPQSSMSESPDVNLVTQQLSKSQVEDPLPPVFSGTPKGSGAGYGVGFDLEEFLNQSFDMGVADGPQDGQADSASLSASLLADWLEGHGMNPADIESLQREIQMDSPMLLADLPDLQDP
Protocol: Molt4 cells were maintained in RPMI 1640 supplemented with 10% FBS and 100 U/mL Penicillin-Streptomycin at 37° C. in the presence of 5% CO2. […] The cells were then lysed with RIPA buffer containing phosphatase/protease inhibitor, and cell extracts were precleared by centrifugation at 21000×g for 5 minutes at 4° C. The Pierce BCA protein assay kit was used to assess protein lysate concentration and normalized using SDS sample buffer. Lysates were resolved on 4-12% Tris-Base gels and transferred to an Immuno-Blot PVDF membrane. The membrane was blocked for 1 hour, then incubated with primary antibodies against ERK5 (Cell Signaling) and j-Actin (Cell Signaling). The next day, membranes were washed with TBS-T, then incubated at room temperature for 1 hour with IRDye@800-labeled goat anti-rabbit IgG and IRDye@800-labeled goat anti-mouse IgG (LI-COR) secondary antibodies. The membranes were detected on Odyssey® CLx system.

ERK5 [2] = biological target: T1, ERK5; test: Multiplexed tandem mass tag quantitative mass spectrometry proteomics in Molt4 cells; assay type: cell-based; conditions: 100 nM, 5 hours, vs DMSO vehicle
Protocol: FIG. 3 is a scatterplot that depicts the change in relative protein abundance of compound 2 (100 nM, 5 h)-treated MOLT4 cells compared with DMSO vehicle control-treated cells. Protein abundance measurements were made using tandem mass tag quantitative mass spectrometry. The log 2fold change (log 2FC) is shown on the y axis and negative log 10p value (−log 10p value) on the x axis.

| SMILES | time of treatment within which ERK5 degradation is induced (ERK5 [1]; 0.1 μM and 1 μM, time course 1 h, 2 h, 3 h, 4 h) | ERK5 degradation (immunoblot) (ERK5 [1]) | VHL dependence of ERK5 degradation (ERK5 [1]; 5 h, compared with negative control) | concentration at which ERK5 degradation is seen (as low as / up to) (ERK5 [1]) | concentration at which ERK5 degradation is induced (as low as) (ERK5 [1]; 5 hours of treatment) | change in relative protein abundance (proteome-wide selectivity) (ERK5 [2]) |
| --- | --- | --- | --- | --- | --- | --- |
| Cc1ncsc1-c1ccc([C@H](C)NC(=O)[C@@H]2C[C@@H](O)CN2C(=O)[C@@H](NC(=O)CCCCCN2CCN(c3ccc4c(C5CCN(C(=O)c6ccc(OC(F)(F)F)cc6N)CC5)ncnc4c3)CC2)C(C)(C)C)cc1 [compound 2, (2S,4R)-1-((S)-2-(6-(4-(4-(1-(2-amino-4-(trifluoromethoxy)benzoyl)piperidin-4-yl)quinazolin-7-yl)piperazin-1-yl)hexanamido)-3,3-dimethylbutanoyl)-4-hydroxy-N—((S)-1-(4-(4-methylthiazol-5-yl)phenyl)ethyl)pyrrolidine-2-carboxamide] | ≤ 2 h | potently degraded ERK5 | degraded ERK5 in a VHL-dependent manner | ≤ 0.05 µM | ≤ 50 nM | significant downregulation of only ERK5 protein levels |
| Cc1ncsc1-c1ccc([C@H](C)NC(=O)[C@H]2C[C@H](O)CN2C(=O)[C@@H](NC(=O)CCCCCN2CCN(c3ccc4c(C5CCN(C(=O)c6ccc(OC(F)(F)F)cc6N)CC5)ncnc4c3)CC2)C(C)(C)C)cc1 [compound 13, (2R,4S)-1-((S)-2-(6-(4-(4-(1-(2-amino-4-(trifluoromethoxy)benzoyl)piperidin-4-yl)quinazolin-7-yl)piperazin-1-yl)hexanamido)-3,3-dimethylbutanoyl)-4-hydroxy-N—((S)-1-(4-(4-methylthiazol-5-yl)phenyl)ethyl)pyrrolidine-2-carboxamide, reference compound] |  | did not recruit the VHL E3 ligase or induce ERK5 degradation |  | > 5 µM |  |  |
